# Measurements from patent US20080261895A1 (Wyeth, priority 2006, published 2008).
# Where “and” joins values, the source holds several entries; their conditions need not be identical. Equal entries are not always repeated.
# How the values were obtained:
# [1] = tested on: dog liver microsomes; test: Glucuronidation in dog liver microsomes; format: in vitro ADME; settings: dog liver microsomes 1 mg/mL, 100 μM, 30 minutes; in the presence of only UDPGA
# Protocol: To confirm the site of glucuronidation of DVS, incubations were performed using dog liver microsomes. These incubations compared the glucuronidation of DVS to venlafaxine. […] Reactions were initiated by the addition of UDPGA (final concentration 1 mM). An additional set of incubations was performed for venlafaxine with UDPGA and an NADPH generating system. […] Reactions were stopped by the addition of 500 μL of acetonitrile and processed as described above. Samples were analyzed by LC/MS.
# [2] = Stability of [14C]DVS in control dog urine; format: in vitro ADME; settings: 37° C., up to 24 hours
# Protocol: (§1) The stability of [^14C]DVS in dog urine was determined. [^14C]DVS (0.025 mg/mL, final concentration) was added to control dog urine and incubated in a shaking water bath set to 37° C. Aliquots (1 mL) were removed at 0, 1, 4, 8 and 24 hours. Samples were extracted as described above and radiopurity assayed by HPLC analysis.
# [3] = Fecal excretion and metabolite profile by radiochromatography, dogs; format: in vivo, beagle dogs; settings: single oral 30 mg/kg
# Protocol: For each dog, urine and feces were collected separately, with urine collected on dry ice and feces collected at room temperature. Collections were from 0-8 and 8-24 hours for urine and 0-24 hours for feces. Urine and fecal samples were shipped on dry ice to Wyeth Research, Biotransformation Division (Collegeville, Pa.) for analysis. Fecal samples were homogenized in approximately five volumes (v/w) of water. Aliquots of approximately 0.2 grams of the homogenate were placed into combusto-cones, weighed and allowed to air dry. These samples were then oxidized and radioactivity content determined. The remaining urine samples and fecal homogenates were stored at −70° C. until metabolite analysis. Blood samples and fecal homogenates were oxidized in a Model 307 Tri-Carb sample oxidizer, using Carbosorb® E (6 mL) as trapping agent and PermaFluor® E^+ (10 mL) as scintillant. The background reading (average of control blood or fecal samples) was subtracted from each sample reading. Aliquots of urine and plasma were analyzed directly following the addition of 10 mL of Ultima Gold™ scintillation fluid.
# Fecal homogenates collected up to 24 hours post-dose were analyzed for metabolite profiles. Aliquots of approximately 2 grams of fecal homogenate were transferred to a fresh tube, an equal volume of acetonitrile (v/w) was added, and the tube vortexed. Samples were then centrifuged at 14000 rpm in an Eppendorf Model 5415C centrifuge for 10 minutes. The supernatant was transferred to a clean tube. The residue was re-suspended with 1 mL acetonitrile and centrifuged as described above. The resulting supernatant was combined with the original supernatant and analyzed for radioactivity. The supernatants were then concentrated under a stream of nitrogen in a Turbo Vap to remove the acetonitrile. An aliquot of the aqueous residue was analyzed by HPLC for profiling. Selected samples were also analyzed by LC/MS to characterize the radioactive peaks.
# (§2) Chromatographic analyses were performed with a Waters Alliance model 2690 HPLC system (Waters Corp., Milford, Mass.). It was equipped with a built-in autosampler and was in-line with a model 2487 tunable UV detector, set to monitor 225 nm, and a FloOne β Model 515 radioactivity flow detector (Perkin Elmer) with a 250 μL LQTR flow cell. The flow rate of Ultima Flow M scintillation fluid was 3 mL/min, providing a mixing ratio of scintillation cocktail to mobile phase of 3:1. Separation of the metabolite peaks was accomplished on a Phenomenex Luna C18(2) column, 250×4.6 mm, 5 micron (Phenomenex, Torrance, Calif.), using a linear gradient of two mobile phases, A and B. Mobile phase A was 10 mM ammonium acetate, pH 5.5, and mobile phase B was acetonitrile. The flow rate was 1 mL/min.
# [4] = Urinary excretion and metabolite profile by radiochromatography, rats; format: in vivo, Sprague Dawley rats; settings: for Compounds Detected by Radiochromatography in urine (Mean ± S.D., n = 3), percent of total peaks / Radioactivity as % of Dose in urine, Mean ± S.D. / Radioactivity as % of Dose in urine, Individuals: single oral 20 mg/kg; for Radioactivity as % of Dose in urine, Individuals: listed as [^14C]DVS, 20 mg/kg
# Protocol: Urine and feces were collected separately on dry ice from three animals per sex. Collections were from 0-8 and 8-24 hours for male rats and 0-8 hours for female rats. Fecal samples were homogenized in approximately five volumes (v/w) of water. Aliquots of approximately 0.4 grams of the homogenate were placed into combusto-cones, weighed and allowed to air dry. These samples were then oxidized. The remaining urine samples and fecal homogenates were stored at −70° C. until metabolite analysis.
# All urine samples were analyzed for metabolite profiles. Aliquots of 0.5 mL urine were centrifuged at 3500 rpm and 4° C. in a Sorvall Super 21 centrifuge for 10 minutes. The supernatant was transferred to a fresh tube and analyzed for radioactivity content and by HPLC for profiling. Selected samples were also analyzed by LC/MS to characterize the radioactive peaks.
# as §2, with “β Model 525 radioactivity flow” for “β Model 515 radioactivity flow”, “fluid was 1 mL/min, providing” for “fluid was 3 mL/min, providing”, “phase of 5:1. Separation of” for “phase of 3:1. Separation of”, “C18(2) column, 150×2.0 mm, 5” for “C18(2) column, 250×4.6 mm, 5”, “acetate, pH 6.0, and mobile” for “acetate, pH 5.5, and mobile”, “rate was 0.2 mL/min.” for “rate was 1 mL/min.”
# [5] = tested on: norepinephrine levels in the brains; test: Norepinephrine levels in the brains of rats; format: in vivo; settings: 30 mg/kg (free base), administered subcutaneously, male Sprague Dawley rats
# [6] = Stability of [14C]DVS in control rat plasma; format: in vitro ADME; settings: 37° C.
# Protocol: as §1, with “rat plasma” for “dog urine”, “(0.01” for “(0.025”, “(0.5” for “(1”
# [7] = Stability of [14C]DVS in control dog plasma; format: in vitro ADME; settings: 37° C., up to 24 hours
# Protocol: as §1, with “plasma” for “urine”, “(0.012” for “(0.025”, “Duplicate aliquots” for “Aliquots”, “8,” for “8”
smiles,measurement,setting,value
"CN(C)CC(c1ccc(O)cc1)C1(O)CCCCC1.O=C(O)CCC(=O)O (stereo not shown) [DVS, O-desmethylvenlafaxine succinate]",glucuronidation,[1],observed
same,Stability of [14C]DVS in control dog urine,[2],stable
same,"Compounds Detected by Radiochromatography in feces, percent of total peaks, individual dogs","[3]; feces 0-24 hours post dose (dog 7 until 48 hours), average of 2 analyses",78.6% and 50.6% and 85.7% and 88.8%
same,"Radioactivity as % of Dose in feces, individual dogs","[3]; feces 0-24 hours post dose (dog 7 until 48 hours), listed as [^14C]DVS",4.4% and 0.3% and 4.0% and 3.3%
same,"Compounds Detected by Radiochromatography in feces, percent of total peaks, Mean ± S.D.",[3]; feces 0-24 hours post dose,76% and 75.9 ± 17.4%
same,"Radioactivity as % of Dose in feces, Mean ± S.D.",[3]; feces 0-24 hours post dose,approximately 3%
same,"Radioactivity as % of Dose in feces, Mean ± S.D.","[3]; feces 0-24 hours post dose, listed as [^14C]DVS",3.0 ± 1.9%
same,"Compounds Detected by Radiochromatography in urine (Mean ± S.D., n = 3), percent of total peaks","[4]; 0-8 hr, female",20.0 ± 3.5%
same,"Radioactivity as % of Dose in urine, Mean ± S.D.","[4]; 0-8 hr, female",54.5 ± 12%
same,"Radioactivity as % of Dose in urine, Individuals","[4]; 0-8 hr, female",53.8% and 42.7% and 67.1%
same,"Compounds Detected by Radiochromatography in urine (Mean ± S.D., n = 3), percent of total peaks","[4]; 0-8 hr, male",10.9 ± 2.1%
same,"Radioactivity as % of Dose in urine, Mean ± S.D.","[4]; 0-8 hr, male",59.1 ± 7.9%
same,"Radioactivity as % of Dose in urine, Individuals","[4]; 0-8 hr, male",60.1% and 50.7% and 66.5%
same,"Compounds Detected by Radiochromatography in urine (Mean ± S.D., n = 3), percent of total peaks","[4]; 8-24 hr, male",9.1 ± 1.1%
same,"Radioactivity as % of Dose in urine, Mean ± S.D.","[4]; 8-24 hr, male",25.5 ± 6.4%
same,"Radioactivity as % of Dose in urine, Individuals","[4]; 8-24 hr, male",24.6% and 32.3% and 19.7%
same,% of the radioactive dose recovered in urine,[4]; within 24 hours post-dose,85%
same,% of the radioactive dose recovered in urine,[4]; within the first 8 hours post-dose,greater than 50%
same,norepinephrine levels in the brains,[5],significantly increased
same,radiopurity of [14C]DVS in rat plasma,[6]; all time points up to 24 hours,greater than 98.9%
same,Stability of [14C]DVS in control rat plasma,[6]; up to 24 hours,stable
same,Stability of [14C]DVS in control dog plasma,[7],stable
